Laboratory results published in US9725460B2, “Oridonin analogs, compositions, and methods related thereto” (THE BOARD OF REGENTS OF THE UNIVERSITY OF TEXAS SYSTEM, priority 2013, dated 2017).

Tests used:
Format in all cases: cell-based, human
MDA-MB-468 = experiment: MTT cancer cell proliferation assay, MDA-MB-468; settings: Homo sapiens, MDA-MB-468, 48 h, Table 3; pyran-fused diterpenoids; MTT 48 h; mean ± SE of three experiments
Method: (§1) In Vitro Determination of Effects of Synthesized Diterpenoids on Cancer Cell Proliferation. Breast cancer cell lines MCF-7, MDA-MB-231, […] and MCF/ADR were seeded in 96-well plates at a density of 1×10^4 cells/well and treated with DMSO and 0.01, 0.1, 1, 5, 10, and 100 μM of individual compound for 48 h, and then 20 μL of 3-(4,5-dimethylthiazol-2-yl)-2,5-diphenyltetrazolium bromide (MTT) (5 mg/mL in PBS) was added to each well and further incubated for another 4 h. Then MTT solution was removed, and 150 μL of DMSO was added to each well. Absorbance of all wells was determined by measuring OD at 550 nm after a 10 min incubation on a 96-well GlowMaxate absorbance reader (Promega, Madison, Wis.). Each individual compound was tested in quadruplicate wells for each concentration.
(§2) The growth inhibitory effects of the newly generated pyran-fused diterpenoids were evaluated in four breast cancer cell lines MCF-7 (ER-positive), MDAMB-231 (ER-negative and triple-negative), MDA-MB-468 (ER-negative and triple-negative) as well as MCF-7/ADR (adriamycin-resistant) using MTT assays as described in the Experimental Section. The capability of these new molecules to inhibit the growth of cancer cells was summarized in Table 3 and compared with that of adriamycin and 1 spontaneously.

MCF-7/ADR = experiment: MTT growth inhibition, drug-resistant MCF-7/ADR; settings: Homo sapiens, NCI/ADR-RES, 48 h, Table 3; adriamycin-resistant; MTT 48 h; mean ± SE of three experiments
Method: as §1, §2

MCF-7 = experiment: MTT cancer cell proliferation assay, MCF-7; settings: Homo sapiens, MCF7, 48 h, Table 3; pyran-fused diterpenoids; MTT 48 h; mean ± SE of three experiments; read-out: IC50 (μM) MCF-7
Method: as §1
(§3) The growth inhibitory effects of the newly generated pyran-fused diterpenoids were evaluated in four breast cancer cell lines MCF-7 (ER-positive), MDAMB-231 (ER-negative and triple-negative), MDA-MB-468 (ER-negative and triple-negative) as well as MCF-7/ADR (adriamycin-resistant) using MTT assays as described in the Experimental Section.

MDA-MB-231 = experiment: MTT cancer cell proliferation assay, MDA-MB-231; settings: Homo sapiens, MDA-MB-231, 48 h, Table 3; pyran-fused diterpenoids; MTT 48 h; mean ± SE of three experiments; read-out: IC50 (μM) MDA-MB-231
Method: as §1, §3

SMILES | IC50 (MDA-MB-468) | IC50 (MCF-7/ADR) | IC50 (MCF-7) | IC50 (MDA-MB-231)
C=C1C(=O)[C@@]23[C@@H]4OC(C)(C)O[C@@]25OC[C@]2(C6=C(CC[C@H](OCCCl)O6)CC(C)(C)[C@H]2[C@@H]5O)[C@@H]3CC[C@@H]14 [CYD-8-65-1] | 2.99 ± 1.01 µM | 3.08 ± 1.12 µM | 2.31 ± 1.02 µM | 3.3 ± 1.81 µM
C=C1C(=O)[C@@]23[C@@H]4OC(C)(C)O[C@@]25OC[C@]2(C6=C(CC[C@@H](OCCCl)O6)CC(C)(C)[C@H]2[C@@H]5O)[C@@H]3CC[C@@H]14 [CYD-8-65-2] | 7.26 ± 0.23 µM | 8.74 ± 0.27 µM | 6.76 ± 3.43 µM | 7.15 ± 1.27 µM
C=CCO[C@H]1CCC2=C(O1)[C@@]13CO[C@@]4(OC(C)(C)O[C@@H]5[C@H]6CC[C@@H]1[C@]54C(=O)C6=C)[C@@H](O)[C@@H]3C(C)(C)C2 [CYD-8-66-1] | 4.89 ± 0.85 µM | 4.31 ± 2.43 µM | 4.32 ± 1.82 µM | 7.12 ± 0.22 µM
C=CCO[C@@H]1CCC2=C(O1)[C@@]13CO[C@@]4(OC(C)(C)O[C@@H]5[C@H]6CC[C@@H]1[C@]54C(=O)C6=C)[C@@H](O)[C@@H]3C(C)(C)C2 [CYD-8-66-2] | 4.37 ± 1.48 µM | 3.19 ± 0.54 µM | 2.1 ± 0.98 µM | 3.3 ± 0.23 µM
C=C1C(=O)[C@@]23[C@@H]4OC(C)(C)O[C@@]25OC[C@]2(C6=C(CC[C@H](OCCCCO)O6)CC(C)(C)[C@H]2[C@@H]5O)[C@@H]3CC[C@@H]14 [CYD-8-67-1] | 2.65 ± 0.14 µM | 4.51 ± 1.54 µM | 2.14 ± 1.11 µM | 3.18 ± 0.24 µM
C=C1C(=O)[C@@]23[C@@H]4OC(C)(C)O[C@@]25OC[C@]2(C6=C(CC[C@@H](OCCCCO)O6)CC(C)(C)[C@H]2[C@@H]5O)[C@@H]3CC[C@@H]14 [CYD-8-67-2] | 5.96 ± 0.29 µM | 5.34 ± 1.29 µM | 5.17 ± 2.9 µM | 5.89 ± 2.04 µM
C=C1C(=O)[C@@]23[C@@H]4OC(C)(C)OC25OC[C@]2(C6=C(CC[C@H](OCCCC)O6)CC(C)(C)[C@H]2[C@@H]5O)[C@@H]3CC[C@@H]14 [CYD-8-69-1] | 2.98 ± 0.67 µM | 3.8 ± 1.15 µM | 2.41 ± 1.45 µM | 2.23 ± 0.39 µM
C=C1C(=O)[C@@]23[C@@H]4OC(C)(C)O[C@@]25OC[C@]2(C6=C(CC[C@H](OCC)O6)CC(C)(C)[C@H]2[C@@H]5O)[C@@H]3CC[C@@H]14 [CYD-8-69-2] | 5.81 ± 1.92 µM | 6.79 ± 3.46 µM | 2.41 ± 1.86 µM | 3.73 ± 0.28 µM
C=C1C(=O)[C@@]23[C@@H]4OC(C)(C)O[C@@]25OC[C@]2(C6=C(C[C@H]7CCCO[C@H]7O6)CC(C)(C)[C@H]2[C@@H]5O)[C@@H]3CC[C@@H]14 [CYD-8-74-2] | 3.33 ± 0.58 µM | 2.89 ± 0.32 µM | 2.39 ± 0.78 µM | 2.53 ± 0.77 µM
C=C1C(=O)[C@@]23[C@@H]4OC(C)(C)O[C@@]25OC[C@]2(C6=C(CC[C@@H](SCC)O6)CC(C)(C)[C@H]2[C@@H]5O)[C@@H]3CC[C@@H]14 [CYD-8-84] | 2.83 ± 0.42 µM | 3.82 ± 0.47 µM | 2.3 ± 1.4 µM | 2.87 ± 0.54 µM
